# Experimental data published in US7745657B2, “D-homoandrosta-17-yl carbamate derivatives as selective glucocorticoid receptor ligands” (Merck Sharp & Dohme Corp., priority 2005, dated 2010).
# Biological target: T1, human GR (Homo sapiens, UniProt P04150)
# T1 construct: U937 cells contain an endogenous glucocorticoid receptor (GR); endogenous in cells; host or cells: U937 cells stably transfected with the TNF-alpha promoter / beta-lactamase reporter
# T1 sequence (P04150 1-777): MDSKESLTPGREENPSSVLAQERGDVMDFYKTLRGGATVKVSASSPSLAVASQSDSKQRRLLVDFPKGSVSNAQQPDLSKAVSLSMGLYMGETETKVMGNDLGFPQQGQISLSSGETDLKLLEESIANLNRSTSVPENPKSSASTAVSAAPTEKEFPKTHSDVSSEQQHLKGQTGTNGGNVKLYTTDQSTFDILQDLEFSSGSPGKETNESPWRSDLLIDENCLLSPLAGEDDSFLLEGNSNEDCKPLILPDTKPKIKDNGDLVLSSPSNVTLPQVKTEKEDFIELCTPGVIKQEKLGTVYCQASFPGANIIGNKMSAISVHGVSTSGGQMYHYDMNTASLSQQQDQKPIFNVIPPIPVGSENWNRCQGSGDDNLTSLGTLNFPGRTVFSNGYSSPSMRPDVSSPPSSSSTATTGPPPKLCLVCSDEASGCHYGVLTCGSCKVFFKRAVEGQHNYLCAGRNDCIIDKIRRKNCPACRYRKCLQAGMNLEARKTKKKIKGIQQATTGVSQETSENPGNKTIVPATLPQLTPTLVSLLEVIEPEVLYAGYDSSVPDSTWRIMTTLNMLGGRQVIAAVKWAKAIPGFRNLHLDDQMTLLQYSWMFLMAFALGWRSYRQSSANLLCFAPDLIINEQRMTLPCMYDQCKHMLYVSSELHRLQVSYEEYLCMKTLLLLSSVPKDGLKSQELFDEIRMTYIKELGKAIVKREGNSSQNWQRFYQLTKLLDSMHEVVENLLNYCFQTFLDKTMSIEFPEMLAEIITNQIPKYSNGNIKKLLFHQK
# Experiment: Transrepression assay, TNFα-β-lactamase reporter gene in U937 cells
# Type: cell-based
# Conditions: U-937, PMA/LPS stimulated, activity repressed by 100 nM dexamethasone alone set as 100%, read-out: maximal activity
# Text: This assay assesses the ability of test compounds to control transcription from the TNFα-β-lactamase reporter gene in U937 cells, a human myelomonocytic leukemia cell line that naturally expresses the human GR. The assay measures compound dependent-repression of the TNFα promoter linked to a reporter gene.
# The human U937 cells that had been stablely transfected with the TNF-αpromoter driving β-lactamase are used for this assay. U937 cells contain an endogenous glucocorticoid receptor (GR). Cells are maintained in RPMI 1640 Growth medium (Gibco Cat#11875-093) containing 25 mM HEPES, 10% FBS, 2 mM L-Glutamine, 1 mM Sodium pyruvate, 25 μg/ml Gentamicin (Gibco Cat#15710-064), 1:1000 2-Mercaptoethanol (Gibco Cat#21985-023) and 0.8 mg/ml G418 (Gibco Cat#10131-027). The density of the cells in the flask needs to be about 1×10^6−3×10^6/ml at the time of harvest. Usually, the cells are split to 1.2˜1.4×10^5/ml (1:10) 3 days prior to the assay. 50,000 cells/well are plated in 96 well black-walled plates the day of assay. Test compounds are added 10 μL/well, and cells are incubated at 37° C. for 30˜45 min. For assaying compounds, first dilute 1:10 in DMSO to make 1 mM, then further dilute 1:100 in medium to make 10× stock prior to adding to the cells. Add 50 ng/ml PMA (Sigma, cat# P8139) 10 μL/well to a final concentration 5 ng/ml, and 1 μg/ml LPS (Sigma, cat# L4130) 10 μL/well to a final concentration 100 ng/ml. Incubate cells at 37° C. overnight for ˜18 hr. PMA is stored frozen as 100 μg/ml stock in DMSO. Dilute 1:10 in DMSO for a working stock of 10 μg/ml and store at −20 C. For assaying, dilute the 10 μg/ml working stock 1:200 in medium to make a 10× solution (50 ng/ml). Store frozen LPS at 1 mg/ml in PBS, dilute 1:1000 in medium to make 10× (1 μg/ml) for the assay. Add 6× loading buffer (CCF2-AM) 20 μL/well, and incubate at room temperature for 70˜90 min. […] The activity repressed by 100 nM dexamethasone alone is set as 100% activity.
row,SMILES,Emax [%]
1,"C[C@H]1CC2C3CCC4=CC(=O)C=C[C@]4(C)[C@@]3(F)[C@@H](O)C[C@]2(C)C(=O)[C@]1(CO)OC(=O)NC12CC3CC(CC(C3)C1)C2 (stereo partly drawn) [Example 1, (11β,16β,17α)-9-fluoro-11-hydroxy-16-methyl-3,17a-dioxo-17-(hydroxymethyl)-d-homoandrosta-1,4-dien-17-yl-(1-adamantyl)carbamate]",> 5
2,"CCCC(C)NC(=O)OC1(CO)C(=O)C2(C)CC(O)C3(F)C(CCC4=CC(=O)C=CC43C)C2CC1C [Example 2, (11β,16β,17α)-9-fluoro-11-hydroxy-16-methyl-3,17a-dioxo-17-(hydroxymethyl)-D-homoandrosta-1,4-dien-17-yl-(2-pentyl)carbamate]",> 5
3,"CCCC(C)CNC(=O)OC1(CO)C(=O)C2(C)CC(O)C3(F)C(CCC4=CC(=O)C=CC43C)C2CC1C [Example 3, (11β,16β,17α)-9-fluoro-11-hydroxy-16-methyl-3,17a-dioxo-17-(hydroxymethyl)-D-homoandrosta-1,4-dien-17-yl-(2-methyl-pentyl)carbamate]",> 5
4,"CC(=O)OCC1(OC(=O)NC23CC4CC(CC(C4)C2)C3)C(=O)C2(C)CC(OC(=O)C(F)(F)F)C3(F)C(CCC4=CC(=O)C=CC43C)C2CC1C [Example 5, (11β,16β,17α)-9-fluoro-11-trifluoroacetoxy-16-methyl-3,17a-dioxo-17-[(acety1oxy)methy1]-D-homoandrosta-1,4-dien-17-yl-(1-adamantyl)carbamate]",> 5
5,"CC(=O)OCC1(OC(=O)NC23CC4CC(CC(C4)C2)C3)C(=O)C2(C)CC(O)C3(F)C(CCC4=CC(=O)C=CC43C)C2CC1C [Example 6, (11β,16β,17α)-9-fluoro-11-hydroxy-16-methyl-3,17a-dioxo-17-[(acetyloxy)methyl]-D-homoandrosta-1,4-dien-17-yl-(1-adamantyl)carbamate]",> 5
6,"CC1CC2C3CCC4=CC(=O)C=CC4(C)C3(F)C(OC(=O)C(F)(F)F)CC2(C)C(=O)C1(CO)OC(=O)NC12CC3CC(CC(C3)C1)C2 [Example 7, (11β,16β,17α)-9-fluoro-11-trifluoroacetoxy-16-methyl-3,17a-dioxo-17-(hydroxymethyl)-D-homoandrostra-1,4-dien-17-yl-(1-adamantyl)carbamate]",> 5
7,"CC1CC2C3CCC4=CC(=O)C=CC4(C)C3(F)C(O)CC2(C)C(=O)C1(CO)OC(=O)NC1CCCCC1 [Example 9, (11β,16β,17α)-9-fluoro-11-hydroxy-16-methyl-3,17a-dioxo-17-(hydroxymethyl)-D-homoandrosta-1,4-dien-17-yl-(cyclohexyl)carbamate]",> 5
